In US20090123979A1, “Methods of reducing the inhibitory effect of a tannin on the enzymatic hydrolysis of cellulosic material” (Novozymes, Inc., priority 2007, published 2009):
Read-outs that look alike come from different tables or passages of the source.

Columns and labels:
Assay type in all cases: biochemical, Trichoderma reesei
[1] = tested on: T1, Cellulolytic Enzyme Composition #1; assay: AVICEL hydrolysis by Cellulolytic Enzyme Composition #1 with added compounds
T1 construct: other: PASC hydrolysis; mean ± SD; 0.01 g enzyme; Dixon plot linear regression intercept (1/Rate); other: AVICEL; rate from hydrolysis difference (%) at 0 and 6 hours; rate from hydrolysis difference; fused on or other part: The A. oryzae beta-glucosidase is the mature chain secreted behind the Humicola insolens endoglucanase V signal peptide, which is cleaved off
From the text: (§1) Initial hydrolysis rates were obtained from the first two hydrolysis time points (i.e., soluble sugar measurements) (with <20% hydrolysis extent in general, rate=(hydrolysis difference)/(time difference)). Double-reciprocal plots (1/(initial rate) vs 1/[cellulose] as function of tannic acid concentration) indicated a “mixed” type inhibition, but their complexity prevented extraction of simple inhibitor constants. Initial rate vs tannic acid concentration yielded an I50 (inhibitor concentration leading to 50% loss of hydrolysis rate) of 0.2±0.1 or 0.27±0.07 mM on PASC or AVICEL® hydrolysis, respectively
(§2) To examine where tannic acid exerted its inhibition, a series of hydrolysis reactions of AVICEL® by Cellulolytic Enzyme Composition #1 was performed in which AVICEL® and Cellulolytic Enzyme Composition #1 were used fresh or after pre-incubation with tannic acid. […] (with detectable precipitation seen), the pre-incubated Cellulolytic Enzyme Composition #1 was gel-filtered using BioSpin 6 desalting columns (Bio-Rad, Hercules, Calif., USA). […] Hydrolysis of untreated or buffer-only pre-incubated AVICEL® and Cellulolytic Enzyme Composition #1, with or without inhibitors, served as controls.

[2] = tested on: Cellulolytic Enzyme Composition #1; assay: as above; settings: AVICEL pre-incubated with 1 mM tannic acid 1 hour at 50° C., then washed
From the text: as §1, §2

[3] = tested on: T1, Cellulolytic Enzyme Composition #1; assay: PCS hydrolysis by Cellulolytic Enzyme Composition #1 with added compounds
Procedure: (§3) Corn stover was pretreated at the U.S. Department of Energy National Renewable Energy Laboratory (NREL), […], Colo., USA, using dilute sulfuric acid. The following conditions were used for the pretreatment: 1.4 wt % sulfuric acid at 195° C. for 4.5 minutes. According to limit digestion with excess cellulase enzymes, the water-insoluble solids in the pretreated corn stover (PCS) contained 59.5% cellulose. Prior to use, the PCS was washed with a large volume of deionized water until soluble acid and sugars were removed. The dry weight of the water-washed PCS was 19.16%.
(§4) The effect of a mixture of tannic acid, ellagic acid, epicatechin, and six lignin constituent compounds (4-hydroxyl-2-methylbenzoic acid, vanillin, coniferyl alcohol, coniferyl aldehyde, ferulic acid, and syringaldehyde) was determined on the hydrolysis of PCS by Cellulolytic Enzyme Composition #1 or Cellulolytic Enzyme Composition #2. […] Cellulolytic Enzyme Composition #1 or Cellulolytic Enzyme Composition #2 was added at 0.25 g per liter. Reactions without the addition of the compounds served as controls. The capped tubes were incubated at 50° C. in an INNOVA® 4080 incubator shaker (New Brunswick Scientific Co., Inc., Edison, N.J., USA) at 150 rpm.
(§5) Aliquots of the suspensions, sampled over time, were filtered by centrifugation using a 0.45 μm MULTISCREEN® HV membrane (Millipore, Billerica, Mass., USA) at 2000 rpm for 15 minutes using a SORVALL® RT7 centrifuge (Thermo Fisher Scientific, Waltham, Mass., USA). When not used immediately, the filtered aliquots were frozen at −20° C. Sugar concentrations of the samples diluted in 0.005 M H2SO4 were measured after elution by 0.005 M H2SO4 at a flow rate of 0.4 ml/minute from a 4.6×250 mm AMINEX® HPX-87H column (Bio-Rad, Hercules, Calif., USA) at 65° C. with quantitation by integration of glucose and cellobiose using refractive index detection (CHEMSTATION®, AGILENT® 1100 HPLC, Agilent Technologies, Santa Clara, Calif., USA) calibrated with standards of glucose and cellobiose. The resultant equivalents were used to calculate the percentage of cellulose conversion for each reaction.
(§6) The degree of cellulose conversion to glucose plus cellobiose sugars (conversion, %) was calculated using the following equation:
(§7) Conversion(%)=(glucose+cellobiose×1.053)(mg/ml)×100×162/cellulose(mg/ml)×180)=(glucose+cellobiose×1.053)(mg/ml)×100/(cellulose(mg/ml)×1.111)
(§8) In this equation the factor 1.111 reflects the weight gain in converting cellulose to glucose, and the factor 1.053 reflects the weight gain in converting cellobiose to glucose. Cellulose in PCS was determined by a limit digest of PCS to release glucose and cellobiose.
(§9) Example 30 was repeated except that each compound was tested separately. […] Reactions without the addition of each compound served as controls.
(§10) The effect of OPC or flavonol on the hydrolysis of PCS by Cellulolytic Enzyme Composition #1 or Cellulolytic Enzyme Composition #2 was determined according to the procedure described in Example 30. OPC and flavonol were present at a concentration of 1 mM. Reactions without the addition of the compounds served as controls.
Methyl gallate and ellagic acid were compared at 10 mM to 1 mM tannic acid in the hydrolysis of PCS by Cellulolytic Enzyme Composition #1.

[4] = biological target: T2, Cellulolytic Enzyme Composition #2; assay: PCS hydrolysis by Cellulolytic Enzyme Composition #2 with added compounds; settings: for Ki: PCS hydrolysis, Cellulolytic Enzyme Composition #2
T2 construct: Dixon plot linear regression intercept (1/Rate); other: PCS; rate from hydrolysis difference (%) at 0 and 5 hours; rate from hydrolysis difference (%); Ki (x-intercept of Dixon plot); other: PCS hydrolysis, Cellulolytic Enzyme Composition #2; OPC flavonol-equivalent; Ki expressed as galloyl constituents; oth; fused on or other part: In one component the Humicola insolens endoglucanase V (CEL45A) core is fused in front of the A. oryzae beta-glucosidase
Procedure: as §3, §4, §5, §6, §7, §8, §9, §10
The effective inhibitory concentration range for tannic acid and OPC was also determined by the “mini-scale” hydrolysis described in Example 30 with Cellulolytic Enzyme Composition #2. The concentration of tannic acid ranged from 0.1 mM to 1 mM, while the concentration of OPC ranged from 0.1 mM to 10 mM. Reactions without the addition of the tannic compounds served as controls.
However, prior to the addition of Cellulolytic Enzyme Composition #2, the mixture of PCS or OPC and tannic acid was treated with Aspergillus oryzae tannase (Novozymes A/S, Bagsværd, Denmark) at 10% of the final protein level for 30 minutes. Reactions without addition of the tannic acid, OPC, or tannase served as controls.

[5] = 25 g AVICEL, 0.25 g enzyme per liter, 1 mM tannic acid, or 5 mM ellagic acid or 10 mM methyl gallate plus 1 mM glucose pentaacetate
[6] = AVICEL, rate from hydrolysis difference (%) at 0 and 6 hours
[7] = 50 g PCS, 0.25 g enzyme per liter, methyl gallate and ellagic acid 10 mM, tannic acid 1 mM
[8] = PCS, rate from hydrolysis difference (%) at 0 and 5 hours

For `O=C(OC[C@H]1O[C@@H](OC(=O)c2cc(O)c(O)c(OC(=O)c3cc(O)c(O)c(O)c3)c2)[C@H](OC(=O)c2cc(O)c(O)c(OC(=O)c3cc(O)c(O)c(O)c3)c2)[C@@H](OC(=O)c2cc(O)c(O)c(OC(=O)c3cc(O)c(O)c(O)c3)c2)[C@@H]1OC(=O)c1cc(O)c(O)c(OC(=O)c2cc(O)c(O)c(O)c2)c1)c1cc(O)c(O)c(OC(=O)c2cc(O)c(O)c(O)c2)c1` [tannic acid, Tannic acid], the “loss in initial rate of AVICEL hydrolysis” value [1, 5] was roughly 90%, the “loss in the extent of AVICEL hydrolysis at day 8” value [1, 5] was roughly 70% and the Ki ([1]; AVICEL hydrolysis, Cellulolytic Enzyme Composition #1, OPC in flavanone-equivalent subunits, read-out: inhibition constant Ki (x-intercept of Dixon plot)) was roughly 130 µM. For the same compound, the IC50 ([1]; AVICEL hydrolysis, 0.01 g enzyme per liter, pH 5.0, 50° C., read-out: I50 (inhibitor concentration leading to 50% loss of hydrolysis rate)) was 270 ± 70 µM, the “Dixon plot linear regression intercept (1/Rate)” value [1, 6] was 0.045±0.017 and the “Dixon plot linear regression slope (1/Rate vs inhibitor concentration)” value [1, 6] was 0.356±0.033. The “activity loss of pre-incubated Cellulolytic Enzyme Composition #1” value ([1]; enzyme pre-incubated with 1 mM tannic acid 1 hour at 50° C., then gel-filtered) was “approximately 80%”, the “concentration dependence of inhibition of AVICEL hydrolysis” value ([1]; tannic acid 0.05 mM to 1 mM, OPC 1 mM to 10 mM, 23 g AVICEL and 0.25 g enzyme per liter) was “increasingly inhibitory” and the “effect of pre-incubating AVICEL with inhibitor on hydrolysis” value [2] was “did not affect the hydrolysis”. The “effect on hydrolysis of PCS by Cellulolytic Enzyme Composition #1” value ([3]; 1 mM each compound, 43.4 g PCS and 0.25 g enzyme per liter, pH 5.0, 50° C.) was “significantly inhibited”, the “loss in initial rate of PCS hydrolysis” value [3, 7] was roughly 70% and the “loss in the extent of PCS hydrolysis at day 4” value [3, 7] was roughly 60%. For the same compound, the Ki ([4]; OPC flavonol-equivalent, read-out: Ki (x-intercept of Dixon plot)) was roughly 180 µM, the Ki ([4]; corresponding galloyl constituents, read-out: Ki expressed as galloyl constituents) was 1800 µM and the “Dixon plot linear regression intercept (1/Rate)” value [4, 8] was 0.018±0.005. The “Dixon plot linear regression slope (1/Rate vs inhibitor concentration)” value [4, 8] was 0.098±0.009 and the “concentration dependence of inhibition of PCS hydrolysis” value ([4]; tannic acid 0.1 mM to 1 mM, OPC 0.1 mM to 10 mM, 43 g PCS and 0.25 g enzyme per liter) was “increasingly inhibitory”.
